Measurements: patent US8536148B2, “Disabling autophagy as a treatment for lysosomal storage diseases” (The United States of America, as Represented by the …, priority 2009, dated 2013)
Entries after “also recorded” stand apart in the source; their conditions may differ.

Assays:
TA muscle = format: in vivo
autophagy = assay: Inhibition of autophagy by 3-MA injected into TA muscle (histology, LC3, glycogen content); format: in vivo; conditions: 40 l of 5 mg/ml per TA, two injections six days apart, harvested two to three days after second injection
Method: 3-MA was administered using the highest possible safety dose (40 l of 5 mg/ml per TA) determined from the above-described study. Two injections (six days apart) were given into TA muscle. Two to three days after the second injection, the treated muscles were harvested to examine the histology, the level of autophagy marker LC3, and the glycogen content.

[1] = intraperitoneal; Sigma MSDS; cited from earlier work
[2] = system: HSAcre: Atg5F/F: GAA−/− mice; assay: Effect of ERT on glycogen levels in HSAcre:Atg5F/F:GAA−/− mice (biochemical glycogen measurement, PAS staining); format: in vivo, mouse; conditions: for Glycogen level, Treated: rhGAA 100 mg/kg i.v., three injections every other week; for Excess Glycogen: treated value minus wild type level
Method: (§1) Glycogen concentration in skeletal muscle was evaluated by measuring the amount of glucose released after treatment of tissue extracts with Aspergillus niger amyloglucosidase as described (Kikuchi et al., J. Clin. Invest., 101:827-833, 1998), except that the enzymatic digestion was carried out at 55° C. rather than 37° C. (Kikuchi et al., J. Clin. Invest., 101:827-833, 1998). Tissues were fixed in 3% glutaraldehyde (EM grade, Electron Microscopy sciences, Hatfield, Pa.) in 0.2M Sodium Cacodylate buffer for 4 h at 4° C., washed in 0.1M Sodium Cacodylate buffer, and stored at 4° C. in the same buffer. Samples were then imbedded in paraffin, sectioned, and stained with periodic acid-Schiff (PAS) by standard methods.
(§2) Two and a half month-old GAA−/−, MLCcre: Atg7F/F: GAA−/−, and HSAcre: Atg5F/F: GAA−/− mice received three intravenous injections of recombinant human α-glucosidase (rhGAA; Myozyme®, Genzyme Corporation, Framingham, Mass.) at a dose of 100 mg/kg every other week. To diminish a hypersensitivity reaction, diphenhydramine hydrochloride was injected intraperitoneally at a dose of 5 mg/kg 15 minutes before the second and third injections of rhGAA. The mice were sacrificed 7 days after the last injection. Twelve GAA−/−, 11 HSAcre: Atg5F/F: GAA−/−, and 9 MLCcre: Atg7F/F: GAA−/− were treated with rhGAA.

[3] = system: MLCcre: Atg7F/F: GAA−/− mice; assay: LAMP-1/LC3 immunostaining of single fast (psoas) fibers after ERT, MLCcre:Atg7F/F:GAA−/− mice; format: in vivo, mouse; conditions: ERT-treated
Method: (§3) White gastrocnemius, soleus, and psoas muscles were removed immediately after sacrifice and pinned to Sylgaard-coated dishes for fixation with 2% paraformaldehyde in 0.1M phosphate buffer for 1 h, followed by fixation in methanol (−20° C.) for 6 min. Single fibers were obtained by manual teasing. Fibers were placed in a 24-well plate in Blocking Reagent (Vector Laboratories, Burlingame, Calif.) for 1 h. The fibers were then permeabilized, incubated with primary antibody overnight at 4° C., washed, incubated with secondary antibody for 2 h, washed again, and mounted in Vectashield (Vector Laboratories, Burlingame, Calif.) on a glass slide. The fibers were analyzed using a Zeiss 510 META confocal microscope. The white part of gastrocnemius and psoas muscles in mice are a good source of glycolytic fast-twitch type II fibers (referred to as fast fibers), whereas soleus muscle is a good source of oxidative slow-twitch type I fibers (referred to as slow fibers). At least three animals from each genotype were used to obtain single muscle fibers for immunostaining. For each immunostaining and for confocal analysis, at least 20 fibers were isolated from each of the three muscle groups. […]

Pompe disease = conditions: cited from earlier work
[4] = system: genetically engineered mice that lack expression of GAA; conditions: mice lacking GAA; cited from earlier work
GAA−/− mice [5] = assay: Effect of ERT on glycogen levels in GAA−/− mice (biochemical glycogen measurement, PAS staining); format: in vivo, mouse; conditions: for Treated vs. Untreated GAA−/− % Reduction / Glycogen level, Treated / Excess Glycogen: GAA−/−; for Glycogen level, Treated: rhGAA 100 mg/kg i.v., three injections every other week; for Excess Glycogen: treated value minus wild type level
Method: as §1, §2

[6] = system: HSAcre: Atg5F/F: GAA−/− mice; assay: Effect of ERT on ubiquitinated (Ub) proteins in fast muscle of HSAcre:Atg5F/F:GAA−/− mice (FK2 immunoblot, immunostaining); format: in vivo, mouse; conditions: ERT-treated vs untreated
Method: as §3
Protein concentrations of the supernatants of the total lysates or soluble fractions were measured using Bio-Rad Protein Assay (Bio-Rad Laboratories, Inc., Hercules, Calif.). […]

GAA−/− mice [7] = assay: LAMP-1/LC3 immunostaining of single fast (psoas) fibers after ERT, GAA−/− mice; format: in vivo, mouse; conditions: ERT-treated
Method: as §3

[8] = system: MLCcre: Atg7F/F: GAA−/− mice; assay: Effect of ERT on glycogen levels in MLCcre:Atg7F/F:GAA−/− mice (biochemical glycogen measurement, PAS staining); format: in vivo, mouse; conditions: for Glycogen level after ERT (in words): MLCcre:Atg7F/F:GAA−/− mice, fast muscle; for Glycogen level, Treated: rhGAA 100 mg/kg i.v., three injections every other week; for Excess Glycogen: treated value minus wild type level
Method: as §1, §2

GAA−/− mice [9] = assay: Effect of ERT on ubiquitinated (Ub) proteins in fast muscle of GAA−/− mice (FK2 immunoblot); format: in vivo, mouse; conditions: gastrocnemius total lysates, ERT-treated vs untreated
Method: Whole muscle tissues were homogenized in RIPA buffer (PBS, 1% NP40, 0.5% Sodium deoxycholate, 0.1% SDS) containing a protease inhibitor cocktail tablet (Roche Diagnostics, Mannheim, Germany). Samples were centrifuged for 30 min at 13,000 rpm at 4° C. Alternatively, detergent-soluble and -insoluble fractions from muscle tissues were obtained as previously described (Hara et al. 2006). Briefly, muscle tissues were homogenized in ice-cold 0.25 M sucrose buffer (50 mM Tris-HCl pH 7.4, 1 mM EDTA; ˜350 μl/100 mg tissue) with protease inhibitors. Homogenates were centrifuged at a low speed for […] at 4° C., and the supernatants were lysed with an equal volume of cold sucrose buffer with 1% Triton X-100. Lysates were then centrifuged at 13,000 g for […] at 4° C. to collect fractions soluble in 0.5% Triton-X-100; the pellets (Triton-X-100-insoluble fractions) were resuspended in 1% SDS in PBS.
Protein concentrations of the supernatants of the total lysates or soluble fractions were measured using Bio-Rad Protein Assay (Bio-Rad Laboratories, Inc., Hercules, Calif.). Equal amounts of protein were run on SDS-PAGE gels (Invitrogen) followed by electro-transfer onto nitrocellulose membranes (Invitrogen). […]

In the case of `Cn1cnc(N)c2ncnc1-2` [3-MA, 3-Methyladenine], the “Highest possible safety dose” value (TA muscle; 40 l per TA (so in the source), intramuscular) is reported as 5 mg/mL, the Toxicity / tolerability (TA muscle; mouse, in vivo, ip) is reported as “no toxicity was observed” and the “Inhibition of autophagy in the injected muscle” value (autophagy) is reported as “did not inhibit autophagy effectively”. The “ip LD50 dose” value [1] was 280 mg/kg.

In the case of “ERT: recombinant human α-glucosidase (rhGAA; Myozyme®, Genzyme Corporation) given intravenously as enzyme replacement therapy”, the “Glycogen level after ERT (in words)” value ([2]; HSAcre:Atg5F/F:GAA−/− mice, fast muscle) is reported as “reduction of glycogen levels to normal or near normal levels; also recorded: complete removal of the accumulated glycogen”, the “Treated vs. Untreated GAA−/− % Reduction” value ([2]; HSAcre:Atg5F/F:GAA−/−, Gastroc) is reported as 94% and the “Glycogen level, Treated” value ([2]; HSAcre:Atg5F/F:GAA−/−, Gastroc) is reported as 4.1 ± 4.9 μg glucose/hr/mg protein. The “Excess Glycogen” value ([2]; HSAcre:Atg5F/F:GAA−/−, Gastroc) was 0 μg glucose/hr/mg protein, the “Treated vs. Untreated GAA−/− % Reduction” value ([2]; HSAcre:Atg5F/F:GAA−/−, Heart) was 100% and the “Glycogen level, Treated” value ([2]; HSAcre:Atg5F/F:GAA−/−, Heart) was 0.0 ± 0.0 μg glucose/hr/mg protein. The “Excess Glycogen” value ([2]; HSAcre:Atg5F/F:GAA−/−, Heart) was 0 μg glucose/hr/mg protein, the “Treated vs. Untreated GAA−/− % Reduction” value ([2]; HSAcre:Atg5F/F:GAA−/−, Quad) was 94% and the “Glycogen level, Treated” value ([2]; HSAcre:Atg5F/F:GAA−/−, Quad) was 5.0 ± 4.9 μg glucose/hr/mg protein. For the same molecule, the “Excess Glycogen” value ([2]; HSAcre:Atg5F/F:GAA−/−, Quad) was 0.6 μg glucose/hr/mg protein, the “Glycogen clearance, PAS-stained sections” value ([2]; HSAcre:Atg5F/F:GAA−/−, fast (gastrocnemius) muscle, 4 month-old) was “near complete glycogen clearance” and the “Expanded lysosomes (LAMP-1 immunostaining)” value [3] was “reduce in size and appear normal”. For the same molecule, the “Glycogen clearance from skeletal muscle” value (Pompe disease) was “less effective for glycogen clearance from skeletal muscle”, the “Glycogen clearance in cardiac muscle” value (Pompe disease) was “effective for glycogen clearance in cardiac muscle” and the “Glycogen clearance from type I muscle fibers” value [4] was “effective in clearing gylcogen from type I muscle fibers”. For the same molecule, the “Glycogen clearance from type II muscle fibers” value [4] was “not type II muscle fibers”, the “Glycogen clearance after ERT (in words)” value (GAA−/− mice [5]; GAA−/− mice with genetically intact autophagy, skeletal muscle) was “cleared glycogen poorly” and the “Treated vs. Untreated GAA−/− % Reduction” value (GAA−/− mice [5]; Gastroc) was 27%. For the same molecule, the “Glycogen level, Treated” value (GAA−/− mice [5]; Gastroc) was 52.5 ± 22.7 μg glucose/hr/mg protein, the “Excess Glycogen” value (GAA−/− mice [5]; Gastroc) was 48.1 μg glucose/hr/mg protein and the “Treated vs. Untreated GAA−/− % Reduction” value (GAA−/− mice [5]; Heart) was 100%. For the same molecule, the “Glycogen level, Treated” value (GAA−/− mice [5]; Heart) was 0.6 ± 1.2 μg glucose/hr/mg protein, the “Excess Glycogen” value (GAA−/− mice [5]; Heart) was 0 μg glucose/hr/mg protein and the “Treated vs. Untreated GAA−/− % Reduction” value (GAA−/− mice [5]; Quad) was 28%. For the same molecule, the “Glycogen level, Treated” value (GAA−/− mice [5]; Quad) was 54.5 ± 29.6 μg glucose/hr/mg protein, the “Excess Glycogen” value (GAA−/− mice [5]; Quad) was 50.1 μg glucose/hr/mg protein and the “Ub-proteins, FK2 immunostaining of single fast (psoas) myofibers” value [6] was “clearly observed in untreated, but not in ERT-treated myofibers”. The “Amount of ubiquitinated (Ub) proteins, FK2 immunoblot” value ([6]; gastrocnemius, soluble and non-soluble fractions) was “A significant drop in the amount of Ub-proteins; also recorded: significant decrease in the amount of ubiquitinated-proteins”, the “Autophagic buildup (LC3 immunostaining)” value (GAA−/− mice [7]) was “this buildup persists in ERT-treated GAA−/− mice” and the “Lysosomal size (LAMP-1 immunostaining)” value (GAA−/− mice [7]) was “even larger than those in the untreated fiber”. For the same molecule, the “Glycogen level after ERT (in words)” value [8] was “reduction of glycogen levels to normal or near normal levels”, the “Glycogen level after ERT (in words)” value ([8]; listed as recombinant enzyme) was “dramatic reduction in the glycogen level approaching wild type levels” and the “Treated vs. Untreated GAA−/− % Reduction” value ([8]; MLCcre:Atg7F/F:GAA−/−, Gastroc) was 88%. The “Glycogen level, Treated” value ([8]; MLCcre:Atg7F/F:GAA−/−, Gastroc) was 8.6 ± 8.9 μg glucose/hr/mg protein, the “Excess Glycogen” value ([8]; MLCcre:Atg7F/F:GAA−/−, Gastroc) was 4.2 μg glucose/hr/mg protein and the “Treated vs. Untreated GAA−/− % Reduction” value ([8]; MLCcre:Atg7F/F:GAA−/−, Heart) was 100%. The “Glycogen level, Treated” value ([8]; MLCcre:Atg7F/F:GAA−/−, Heart) was 0.2 ± 0.4 μg glucose/hr/mg protein, the “Excess Glycogen” value ([8]; MLCcre:Atg7F/F:GAA−/−, Heart) was 0 μg glucose/hr/mg protein and the “Treated vs. Untreated GAA−/− % Reduction” value ([8]; MLCcre:Atg7F/F:GAA−/−, Quad) was 82%. For the same molecule, the “Glycogen level, Treated” value ([8]; MLCcre:Atg7F/F:GAA−/−, Quad) was 13.7 ± 10 μg glucose/hr/mg protein, the “Excess Glycogen” value ([8]; MLCcre:Atg7F/F:GAA−/−, Quad) was 9.3 μg glucose/hr/mg protein and the “Glycogen clearance, PAS-stained sections” value ([8]; MLCcre:Atg7F/F:GAA−/−, fast (gastrocnemius) muscle, 4 month-old) was “near complete glycogen clearance”. For the same molecule, the “Amount of ubiquitinated (Ub) proteins, FK2 immunoblot” value (GAA−/− mice [9]) was “No difference in the amount of the Ub-proteins; also recorded: No reduction of ubiquitinated-proteins”.
